Test results published in US20250127759A1, “METHODS AND DOSING REGIMENS COMPRISING A CDK2 INHIBITOR FOR THE TREATMENT OF CANCER” (PFIZER INC., priority 2021, published 2025).

Columns and labels:
OVCAR3 cells [1] = test: Proliferation inhibition, OVCAR3; type: cell-based; conditions: Homo sapiens, OVCAR-3, 168 h, treated for 7 days
Method: (§1) Anti-proliferative activity was measured in cells treated for 7 days with PF-07104091 in OVCAR3 cells, Rb mutant NCI-H526 SCLC cells, and both HR-positive HER2-negative MCF7 and the subline MCF7-PalboR (resistant to palbociclib).

MCF7 cells [2] = test: Proliferation inhibition, MCF7; type: cell-based; conditions: Homo sapiens, 168 h, treated for 7 days
Method: as §1

[3] = system: MCF7-PalboR (resistant to palbociclib); test: Proliferation inhibition, MCF7-PalboR; type: cell-based; conditions: 168 h, read-out: Proliferation Inhibition IC50
Method: as §1
The MCF7-PalboR cell model is refractory to palbociclib-induced proliferative inhibition at doses up to […], which exceeds the concentration expected to inhibit CDK4 and CDK6.

NCI-H526 SCLC cells = test: Proliferation inhibition, NCI-H526; type: cell-based; conditions: Homo sapiens, 168 h, treated for 7 days
Method: as §1

OVCAR3 cells [4] = test: Cell cycle distribution and DNA synthesis, OVCAR3; type: cell-based; conditions: 72-hour treatment with 300 nM
Method: (§2) The effect of PF-07104091 on cell cycle distribution and DNA synthesis was determined following 72-hour treatment with 300 nM PF-07104091.

MCF7 cells [5] = test: Cell cycle distribution and DNA synthesis, MCF7; type: cell-based; conditions: 72-hour treatment with 300 nM
Method: as §2

MCF7-PalboR cells = test: Cell cycle distribution and DNA synthesis, MCF7-PalboR; type: cell-based; conditions: 72-hour treatment with 300 nM
Method: as §2

NCI-H526 cells = test: Cell cycle distribution and DNA synthesis, NCI-H526; type: cell-based; conditions: 72-hour treatment with 300 nM
Method: as §2

MCF7 Cells [6] = test: Combination cell proliferation assay, MCF7; type: cell-based, human
Method: (§3) The combination effects of PF-07104091 with palbociclib were evaluated in a cell proliferation assay with MCF7 and T47D BC cell lines. […] Drug combinations were analyzed using the Dose Equivalence Principle, and the Loewe Volume score. When modeling synergy using the Dose Equivalence Principle, the Loewe Volume score for the combination compounds should be greater than the compound self-cross controls, and the Combination Index score for the combination compounds should be less than compound self-cross controls. […] Furthermore, the isobolograms set to an anti-proliferation threshold at 70% confirm a synergistic response.

T-47D Cells = test: Combination cell proliferation assay, T47D; type: cell-based, human
Method: as §3

[7] = In vivo efficacy, OVCAR3 ovarian cancer tumor model; conditions: female, mouse, NSG mice, po, BID, read-out: maximum tolerated dose level
Method: (§4) Female NSG (Jackson Lab) or Nu/nu (CRL) were subcutaneously implanted with tumor cells or fragments (8 mm^3 to 27 mm^3) into the dorsal region. For the MCF7 study, mice were supplemented with estrogen (sc implanted, 17β-estradiol, 0.36 mg, 90-day release pellet, Innovative Research of America, cat no. NE-121).
To establish the OVCAR3 model, tumor cells (5×10^6 cells/mouse with 50% Cultrex® Basement Membrane Matrix) were subcutaneously implanted in female NSG mice. […] PF-07104091 was administered (p.o.) BID (7 hr apart). All mice received treatment continuously for 21 days. TGI was assessed on Day 21 post first dose (or Day 66 post tumor cell implant).

[8] = In vivo efficacy, MCF7 breast cancer model; conditions: female, mouse, NSG mice, po, BID, read-out: maximum tolerated dose level
Method: as §4
The MCF7 model was established by implanting donor tumor fragments into recipient mice. To establish the MCF7 donor mice, tumor cells (5×10^6 cells/mouse with 50% Cultrex® Basement Membrane Matrix) were subcutaneously implanted in female NSG mice. […] 150 mg/kg, po, BID is the maximum tolerated dose level in this model. PF 07104091 was administered (p.o.) BID (7 hr apart). TGI was assessed on Day 21 post first dose (or Day 42 post tumor fragment implant).

NCI-H526 Model = test: In vivo efficacy, NCI-H526 small cell lung cancer model; set-up: species or system mice; conditions: Day 15
Method: as §4
To establish the NCI-H526 model, tumor cells (4×10^6 cells/mouse with 50% Cultrex® Basement Membrane Matrix) were subcutaneously implanted in female Nu/nu mice. […] PF-07104091, Palbociclib at 10 mg/kg and CDK 2/4/6 inhibitor were administered (p.o.) BID (7 hr apart). TGI was assessed on Day 15 post first dose (or Day 20 post tumor cell implant).

HCC1428 = test: In vivo efficacy, HCC1428 breast cancer model; set-up: species or system mice; conditions: Day 42, 150 mg/kg BID PO, 150 mg/kg
Method: The HCC1428 model was established by implanting passage 4 tumor fragments into recipient mice. To establish the HCC1428 donor mice, tumor cells (5×10^6 cell/mouse with 50% Cultrex® Basement Membrane Matrix) were subcutaneously implanted in female NSG mice. […] All mice received treatment continuously until Day 42. TGI was assessed on Day 42 post first dose.

[9] = Nonclinical toxicity study, mouse; type: in vivo
Method: (§5) The selection of the starting dose and regimen was based on the nonclinical toxicology and PK results in accordance with the ICH S9 Guidance. Results from nonclinical toxicity studies indicate the STD10 of PF-07104091 in mouse was 150 mg/kg after BID oral administration. The human equivalent dose for the STD10 in mouse is approximately 729 mg BID (assuming a body weight of 60 kg). Per ICH-S9 guidance, one-tenth of the STD10 can be considered the appropriate starting dose. Given the predicted human t % of approximately 4 hours, the starting dose has been selected to be 75 mg BID. The human AUC0-12 hr of PF-07104091 at the proposed starting oral dose of 75 mg BID is predicted to be ˜6.5% of the observed AUC0-12 hr at the STD10 in mouse (150 mg/kg BID) and ˜80% of the observed AUC0-12 hr at the HNSTD in dog (15 mg/kg BID).

[10] = Nonclinical toxicity study, dog; type: in vivo
Method: as §5

ST941PBR PDX = test: In vivo efficacy, palbociclib-resistant ST941PBR PDX model; conditions: Day 28, 150 mg/kg BID PO, 150 mg/kg
Method: Female NSG mice (Jackson Lab) were subcutaneously implanted with fragment (27 mm^3 to 64 mm^3 size) into the dorsal region. All mice for T47D, HCC1428 and ST941 PBR studies were supplemented with 8.5 μg/mL estradiol water (β-Estradiol Sigma-Aldrich, cat #E2758-5G) and gave ad libitum till end of study. For the in vivo efficacy studies, tumor volume and body weights were measured twice a week. Tumor volume was calculated using the [(Length×Width×Width)/2)] formula. TGI was calculated as 100*(1−ΔT/ΔC). The ΔC (ΔT) was obtained by subtracting the mean tumor burden in the vehicle (treated) group on the first day of treatment (Day 0) from the mean tumor burden in vehicle (treated) group on the assessment day. Statistical analysis was performed using ANCOVA when the mean tumor volume in vehicle treated mice reached tumor cutoff size.
The ST941 PBR palbociclib resistant model was obtained from XENOSTART™ LLC, San Antonio, Texas. We established model in house by continuous treatment of the ST941 PBR tumor bearing mice with PD-0332991 at 50 mg/kg, PO QD plus fulvestrant at 10 mg/kg, SC twice in the first week, then weekly thereafter. To propagate donors for the TGI study, tumors were transplanted to recipient mice. One week after the re-implantation, the recipient mice received continuous treatment with palbociclib plus fulvestrant (dosing schedule described above). After 1 to 2 serial in vivo propagation with the same treatment regimen, the resistant tumors in the range of 700 to 800 mm^3 were re-implanted for a study expansion. The remaining tumor fragments were viably frozen for future use.
The live donor mice were established by implanting ST941 PBR (p11) tumor fragments. Once reaching a range of 700 to 800 mm^3, the donor tumors were subsequently transplanted into secondary recipient mice for a study expansion. To maintain the resistant clones, the ST941 PBR tumor bearing mice were treated with PD-0332991 at 50 mg/kg, PO. QD plus fulvestrant at 10 mg/kg, SC twice in the first week, then weekly afterwards for 10 weeks. […] TGI was assessed on Day 28 post first dose.

In the case of `COCc1cc(C(=O)Nc2cc([C@H]3CC[C@@H](OC(=O)NC(C)C)C3)[nH]n2)n(C)n1` [PF-07104091, (1R,3S)-3-[3-({[3-(methoxymethyl)-1-methyl-1H-pyrazol-5-yl]carbonyl}amino)-1H-pyrazol-5-yl]cyclopentyl propan-2-ylcarbamate], the IC50 (OVCAR3 cells [1]) is reported as 118 nM, the IC50 (MCF7 cells [2]) is reported as 252 nM and the IC50 [3] is reported as 680 nM. The IC50 (NCI-H526 SCLC cells) was 136 nM, the cell cycle arrest (OVCAR3 cells [4]) was “Significant G1 arrest” and the “S phase (cell cycle distribution)” value (OVCAR3 cells [4]; p≤0.05 versus vehicle) was “Significant S phase reduction”. The cell cycle arrest (MCF7 cells [5]) was “significant G2/M arrest”, the “S phase (cell cycle distribution)” value (MCF7 cells [5]; p≤0.05 versus vehicle) was “Significant S phase reduction” and the cell cycle arrest (MCF7-PalboR cells) was “significant G2/M arrest”. The “S phase (cell cycle distribution)” value (MCF7-PalboR cells; p≤0.05 versus vehicle) was “Significant S phase reduction”, the cell cycle arrest (NCI-H526 cells) was “significant G2/M arrest” and the “S phase (cell cycle distribution)” value (NCI-H526 cells; p=0.057) was “trended towards significance”. The “Loewe Volume” value (MCF7 Cells [6]) was −0.08, the “Best CI” value (MCF7 Cells [6]; Best CI Level 70) was 1.04 and the “Loewe Volume” value (T-47D Cells) was 0.01. The “Best CI” value (T-47D Cells; Best CI Level 70) was 0.95, the MTD at 21 days [7] was 175 mg/kg and the MTD at 21 days [8] was 150 mg/kg. The TGI % (NCI-H526 Model; 25 mg/kg BID PO) was 44%, the TGI % (NCI-H526 Model; 75 mg/kg BID PO) was 45% and the TGI % (HCC1428) was 95%. The “human equivalent dose for the STD10 in mouse” value ([9]; assuming a body weight of 60 kg) was “approximately 729 mg BID”, the STD10 ([9]; mouse, BID oral administration) was 150 mg/kg and the HNSTD [10] was 15 mg/kg BID. For the same compound, the TGI % (ST941PBR PDX) was 34%.
